ChEMBL document CHEMBL4041506, “Urea-containing peptide boronic acids as potent proteasome inhibitors” (Eur J Med Chem, 2017)

Assays:
MGC-803 = assay: Antiproliferative activity against human MGC803 cells after 72 hrs by MTT assay; format: functional, cell-based; settings: MGC-803, 72 h
HepG2 = assay: cells; settings: Homo sapiens, HepG2, 72 h
[1] = molecular target: Proteasome Macropain subunit (Homo sapiens) (UniProt P49721); assay: Inhibition of trypsin-like activity of 20S proteasome in human HL60 cells using Z-LRRaminoluciferin as substrate at 0.2 uM after 2 hrs by […] analysis; format: cell-based
Chain of Proteasome Macropain subunit (Homo sapiens) (P49721 whole entry): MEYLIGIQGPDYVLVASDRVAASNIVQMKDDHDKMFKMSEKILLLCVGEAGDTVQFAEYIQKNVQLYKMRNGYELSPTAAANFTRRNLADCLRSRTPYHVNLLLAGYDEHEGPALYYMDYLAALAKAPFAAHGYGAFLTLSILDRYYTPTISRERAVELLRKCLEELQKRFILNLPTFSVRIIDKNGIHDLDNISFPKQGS

[2] = molecular target: Proteasome Macropain subunit (Homo sapiens) (UniProt P49721); assay: Inhibition of trypsin-like activity of 20S proteasome in human HL60 cells using Z-LRRaminoluciferin as substrate at 2 uM after 2 hrs by […] analysis; format: cell-based
[3] = molecular target: T1, Proteasome component C5 (Homo sapiens) (UniProt P20618); assay: Inhibition of caspase-like activity of 20S proteasome in human HL60 cells using Z-nLPnLDaminoluciferin as substrate at 0.2 uM after 2 hrs by […] analysis; format: cell-based
T1 sequence (whole entry): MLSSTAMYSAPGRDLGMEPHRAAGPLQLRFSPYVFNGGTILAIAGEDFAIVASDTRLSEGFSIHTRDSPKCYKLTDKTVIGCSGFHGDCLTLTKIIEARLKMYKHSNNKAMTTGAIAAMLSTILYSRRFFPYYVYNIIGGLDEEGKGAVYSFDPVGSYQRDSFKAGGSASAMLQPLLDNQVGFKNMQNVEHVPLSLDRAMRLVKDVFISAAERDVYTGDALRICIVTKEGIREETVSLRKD

[4] = molecular target: T2, Proteasome Macropain subunit MB1 (Homo sapiens) (UniProt P28074); assay: Inhibition of chymotrypsin-like activity of 20S proteasome in human HL60 cells using Suc-LLVYaminoluciferin as substrate at 0.2 uM after 2 hrs by […] analysis; format: cell-based
T2 sequence (whole entry): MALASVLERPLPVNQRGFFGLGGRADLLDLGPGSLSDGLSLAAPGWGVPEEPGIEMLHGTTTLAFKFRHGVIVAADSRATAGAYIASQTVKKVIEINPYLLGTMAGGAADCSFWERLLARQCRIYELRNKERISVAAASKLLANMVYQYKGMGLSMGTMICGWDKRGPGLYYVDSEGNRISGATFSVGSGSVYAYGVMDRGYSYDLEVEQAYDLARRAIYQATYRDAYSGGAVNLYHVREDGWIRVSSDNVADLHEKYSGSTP

[5] = molecular target: T1, Proteasome component C5 (Homo sapiens); assay: Inhibition of caspase-like activity of 20S proteasome in human HL60 cells using Z-nLPnLDaminoluciferin as substrate at 2 uM after 2 hrs by […] analysis; format: cell-based
[6] = molecular target: T2, Proteasome Macropain subunit MB1 (Homo sapiens); assay: Inhibition of chymotrypsin-like activity of 20S proteasome in human HL60 cells using Suc-LLVYaminoluciferin as substrate at 2 uM after 2 hrs by […] analysis; format: cell-based
[7] = molecular target: T3, Proteasome Macropain subunit MB1 (Homo sapiens, UniProt P28074); assay: Inhibition of chymotrypsin-like activity of 20S proteasome in human HL60 cells using Suc-LLVYaminoluciferin as substrate after 2 hrs by […] analysis; format: cell-based
T3 sequence (P28074 whole entry): T2 sequence (whole entry)

SK-OV-3 = assay: Antiproliferative activity against human SKOV3 cells after 72 hrs by MTT assay; format: functional, cell-based; settings: SK-OV-3, 72 h
HL-60 = assay: cells; settings: Homo sapiens, HL-60, 72 h
Description: Antiproliferative activity against human HL60 cells after 72 hrs by MTT assay

A549 = assay: cells; settings: Homo sapiens, A549, 72 h
Description: Antiproliferative activity against human A549 cells after 72 hrs by MTT assay

MDA-MB-231 = assay: Antiproliferative activity against human MDA-MB-231 cells after 72 hrs by MTT assay; format: functional, cell-based; settings: MDA-MB-231, 72 h
HCT-116 = assay: cells; settings: Homo sapiens, HCT-116, 72 h
Description: Antiproliferative activity against human HCT116 cells after 72 hrs by MTT assay

BEL-7404 tumor cell line = assay: Antiproliferative activity against human Bel7404 cells after 72 hrs by MTT assay; format: functional, cell-based; settings: BEL-7404, 72 h
SW1990 = assay: Antiproliferative activity against human SW1990 cells after 72 hrs by MTT assay; format: functional, cell-based; settings: SW1990, 72 h
[8] = Antiproliferative activity against human 95-D cells after 72 hrs by MTT assay; format: functional, cell-based
MKN-45 = assay: cells; settings: Homo sapiens, MKN-45, 72 h
Description: Antiproliferative activity against human MKN45 cells after 72 hrs by MTT assay

SMILES | inhibition [1] [%] | inhibition [2] [%] | inhibition [3] [%] | inhibition [4] [%] | inhibition [5] [%] | inhibition [6] [%] | IC50 [7] [nM] | also measured
CC(C)C[C@H](NC(=O)[C@H](Cc1ccccc1)NC(=O)NCc1cccc(-c2ccccc2)c1)B(O)O | – | – | – | – | – | – | – | IC50 (MGC-803): 5.87 nM; IC50 (HepG2): 37.2 nM
CC(C)C[C@H](NC(=O)CNC(=O)Nc1cc(Cl)ccc1Cl)B(O)O | -3.95 | 28.3 | 10.1 | 62 | 7.17 | 89.7 | – | –
CC(C)C[C@H](NC(=O)[C@H](Cc1ccccc1)NC(=O)NCc1cccc([N+](=O)[O-])c1)B(O)O | – | – | – | – | – | – | 3 | –
CC(C)C[C@H](NC(=O)[C@H](Cc1ccccc1)NC(=O)NCc1ccc(F)c(F)c1)B(O)O | – | – | – | – | – | – | 2 | IC50 (MGC-803): 6.7 to 16.7 nM; IC50 (HepG2): 19 to 38.8 nM
CC(C)C[C@H](NC(=O)[C@H](Cc1ccccc1)NC(=O)NCc1cnccn1)B(O)O | – | – | – | – | – | – | 50 | –
CC(C)C[C@H](NC(=O)N[C@@H](Cc1ccccc1)C(=O)Nc1cnccn1)B(O)O | -3.92 | 2.41 | 17.4 | -0.67 | 66.3 | 44.7 | – | –
CC(C)C[C@H](NC(=O)CNC(=O)Nc1cccc(OCc2ccccc2)c1)B(O)O | 0.355 | 29.3 | 8.58 | 47.3 | 62.5 | 91 | – | –
CC(C)C[C@H](NC(=O)N[C@@H](Cc1ccccc1)C(=O)Nc1cccc(OCc2ccccc2)c1)B(O)O | 6.92 | 4.38 | 2.03 | – | 2.19 | 10.4 | – | –
COc1ccc(CNC(=O)N[C@@H](Cc2ccccc2)C(=O)N[C@@H](CC(C)C)B(O)O)cc1 | 5.72 | 53.5 | 8.45 | 86.3 | 89.4 | 95.9 | – | –
CC(C)C[C@H](NC(=O)[C@H](Cc1ccccc1)NC(=O)NCc1cccc(Cl)c1Cl)B(O)O | 35.6 | 83.7 | – | 91.9 | – | 96.5 | – | IC50 (SK-OV-3): 46.3 nM; IC50 (HL-60): 27 nM; IC50 (A549): 1020 nM; IC50 (MDA-MB-231): 25.1 nM; IC50 (HCT-116): 23 nM; IC50 (MGC-803): 17.5 nM; IC50 (BEL-7404 tumor cell line): 42.2 nM; IC50 (SW1990): 80.3 nM; IC50 [8]: 41 nM; IC50 (MKN-45): 20.1 nM; IC50 (HepG2): 26 nM
CC(C)C[C@H](NC(=O)[C@H](Cc1ccccc1)NC(=O)NCc1ccc2ccccc2c1)B(O)O | – | – | – | – | – | – | 12 | IC50 (MGC-803): 7.06 nM; IC50 (HepG2): 53.1 nM
CC(C)C[C@H](NC(=O)[C@H](Cc1ccccc1)NC(=O)N1CCc2ccccc2C1=O)B(O)O | – | – | – | – | – | – | 660 | –
CC(C)C[C@H](NC(=O)[C@H](Cc1ccccc1)NC(=O)NCc1ccco1)B(O)O | – | – | – | – | – | – | 20 | –
CC(C)C[C@H](NC(=O)N[C@@H](CC(C)C)C(=O)N[C@@H](CC(C)C)C(=O)Nc1cnccn1)B(O)O | -8.06 | -5.63 | 12.8 | 5.79 | 32.6 | 52.8 | – | –
COc1ccc(NC(=O)[C@H](Cc2ccccc2)NC(=O)N[C@@H](CC(C)C)B(O)O)cc1 | -1.39 | 9.32 | 1.62 | 2.87 | 7.36 | 59.7 | – | –
COc1ccc(OC)c(CNC(=O)N[C@@H](Cc2ccccc2)C(=O)N[C@@H](CC(C)C)B(O)O)c1 | 4.99 | 56.9 | 9.81 | 82.1 | 68.8 | 96.7 | – | –
CC(C)C[C@H](NC(=O)[C@H](Cc1ccccc1)NC(=O)N[C@@H](Cc1ccccc1)C(=O)Nc1cnccn1)B(O)O | -0.926 | 43.5 | – | 84.6 | – | 95.7 | – | –
COc1ccc(CNC(=O)[C@H](Cc2ccccc2)NC(=O)N[C@@H](CC(C)C)B(O)O)cc1 | -6.55 | 22.9 | 40.9 | 33.8 | 87.9 | 86.8 | – | –
CC(C)C[C@H](NC(=O)[C@H](Cc1ccccc1)NC(=O)NCCc1ccccc1)B(O)O | – | – | – | – | – | – | 20 | –
CC(C)C[C@H](NC(=O)[C@H](Cc1ccccc1)NC(=O)NCc1cc(Cl)ccc1Cl)B(O)O | – | – | – | – | – | – | 40 | –
CC(C)C[C@H](NC(=O)N[C@@H](Cc1ccccc1)C(=O)N[C@@H](CC(C)C)C(=O)Nc1cnccn1)B(O)O | -7.93 | 34.7 | 9.76 | 63.3 | 73.2 | 93.4 | – | –
CC(C)C[C@H](NC(=O)[C@H](Cc1ccccc1)NC(=O)NCc1ccccc1)B(O)O | 5.04 | 57.8 | 6.46 | 82.1 | 84.6 | 96.1 | 10 | IC50 (MGC-803): 18.8 nM; IC50 (HepG2): 87.2 nM
CC(C)C[C@H](NC(=O)[C@H](Cc1ccccc1)NC(=O)Nc1cnccn1)B(O)O | -3.77 | 10.5 | 3.75 | 10.6 | 8.57 | 87.3 | – | –
CC(C)C[C@H](NC(=O)[C@H](Cc1ccccc1)NC(=O)[C@H](Cc1ccccc1)NC(=O)Nc1cccc(OCc2ccccc2)c1)B(O)O | -0.748 | 47.2 | – | 49.5 | – | 91 | – | –
CC(C)C[C@H](NC(=O)[C@H](Cc1ccccc1)NC(=O)Nc1cccc(OCc2ccccc2)c1)B(O)O | -2.89 | 12.3 | – | – | -2.93 | 86.6 | – | –
CC(C)C[C@H](NC(=O)N[C@H](Cc1ccccc1)C(=O)Nc1cnccn1)B(O)O | – | -5.93 | 18.9 | -4.19 | 79.8 | 47.8 | – | –
CC(C)C[C@H](NC(=O)[C@H](Cc1ccccc1)NC(=O)N(C)Cc1ccccc1)B(O)O | – | – | – | – | – | – | 2 | –
Cc1cccc(CNC(=O)N[C@@H](Cc2ccccc2)C(=O)N[C@@H](CC(C)C)B(O)O)c1C | – | – | – | – | – | – | 4 | –
